Source: patent US9850283B2, “Macrocyclic inhibitors of the PD-1/PD-L1 and CD80(B7-1)/PD-L1 protein/protein interactions” (BRISTOL-MYERS SQUIBB COMPANY, priority 2013, dated 2017)
Where two headings read alike, the source gives them in different places. Starred links: 1 amine or outer side, 2 acyl side, 3 side chain; linkers in the order of their positions; H or OH if unused. Positions of bridges follow the written chain, without caps; N, C: chain ends. Non-standard residues stand in square brackets, D forms with d. Residues, ends and D or L forms follow the SMILES beside them. ξ: configuration not given here. X3 = O=C([C@@H]1C[C@@H](Cc2ccc(F)cc2)CN1[*:1])[*:2]; Phe(3,4,5-F3) = N[C@@H](Cc1cc(F)c(F)c(F)c1)C(=O)O; Pro(4R-NH2) = N[C@H]1CN[C@H](C(=O)O)C1; d(cisHyp) = O=C(O)[C@H]1C[C@@H](O)CN1; Hyp = O=C(O)[C@@H]1C[C@@H](O)CN1; NMeF = CN[C@@H](Cc1ccccc1)C(=O)O; dNMeNle = CCCC[C@@H](NC)C(=O)O; NMeNle = CCCC[C@H](NC)C(=O)O; Pip = O=C(O)[C@@H]1CCCCN1; dPip = O=C(O)[C@H]1CCCCN1; NMeA = CN[C@@H](C)C(=O)O; Dab = NCC[C@H](N)C(=O)O; ξP = O=C(O)C1CCCN1

Experiments:
Human PD-L1/PD-1 = target: T1, Human PD-L1/PD-1 (Homo sapiens, UniProt Q9NZQ7); assay: HTRF PD-1-Ig/PD-L1-His binding assay (human PD-L1)
T1 construct: made in house; host or cells: HEK293T
Outline: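 Readout: time-resolved FRET between Eu cryptate-labeled anti-Ig (1 nM final) and APC-labeled anti-His (20 nM final) antibodies. These detect interaction of Fc-fused PD-1 with His-tagged human PD-L1 in dPBS containing 0.1% BSA and 0.05% Tween-20.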

[1] = target: T2, LK35.2-hPD-L1 cells / PE-labeled PD-1-Ig (Homo sapiens, UniProt Q9NZQ7); assay: LK35.2-hPD-L1 cell binding high-content screening assay; assay type: cell-based
T2 construct: expressed in transfected cells; host or cells: LK35.2 mouse B cell line
Outline: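 Using overnight-cultured LK35.2-hPD-L1 mouse B cells, compound was co-incubated with phycoerythrin-tagged human PD-1-Ig (final 1 nM) at 37 °C for one hour. Unbound label was removed by triple dPBS washing prior to high-content image acquisition and analysis.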

CMV-specific T cells = CMV-specific T cells (Homo sapiens, UniProt Q9NZQ7); assay: CMV-specific T cell function assay (IFNγ secretion, ELISA); assay type: cell-based
Experimental: CMV-specific T Cell Function Assay. […] AIM-V medium (Life Technologies, Grand Island, N.Y.) supplemented with 10% heat-inactivated fetal bovine serum (FBS, Sigma, St Louis, Mo.) was used at a total volume of 200 µL/well in triplicate. The cells were cultured for 4 days at 37° C., 5% CO2 at which time culture supernatant was harvested for determination of secreted IFNγ by ELISA (OptEIA hIFNγ ELISA Kit, BD Biosciences, San Jose, Calif.).

[2] = cell line of CBA not given (LK35.2-hPD-L1 or 293T-hPD-L1), read-out: CBA IC50 value
[3] = read-out: CMV Recall EC50 value

T1 sequence (Q9NZQ7 with tags, fused parts or gaps): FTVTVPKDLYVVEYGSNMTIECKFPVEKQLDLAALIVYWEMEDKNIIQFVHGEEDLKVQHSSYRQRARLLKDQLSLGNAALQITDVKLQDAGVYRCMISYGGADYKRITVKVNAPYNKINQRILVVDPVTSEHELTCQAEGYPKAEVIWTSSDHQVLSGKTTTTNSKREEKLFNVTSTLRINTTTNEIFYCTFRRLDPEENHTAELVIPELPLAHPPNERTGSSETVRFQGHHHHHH
Chain of CMV-specific T cells (Q9NZQ7 19-290): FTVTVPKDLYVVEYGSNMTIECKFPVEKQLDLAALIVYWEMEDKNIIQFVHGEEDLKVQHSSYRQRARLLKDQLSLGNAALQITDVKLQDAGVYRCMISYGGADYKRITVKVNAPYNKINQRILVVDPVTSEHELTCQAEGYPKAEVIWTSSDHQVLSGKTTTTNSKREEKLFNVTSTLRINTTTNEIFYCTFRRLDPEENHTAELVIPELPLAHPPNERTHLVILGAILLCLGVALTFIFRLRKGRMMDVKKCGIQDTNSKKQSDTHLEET
T2 sequence (Q9NZQ7 19-290): as above

Row | IC50 (Human PD-L1/PD-1; read-out: HTRF IC50 value) | IC50 [1, 2] | EC50 (CMV-specific T cells; [3]) | IC50 (Human PD-L1/PD-1; cluster symbol, read-out: HTRF IC50 cluster) | IC50 ([1]; cell binding assay, cell line not given, cluster symbol, read-out: CBA IC50 cluster) | EC50 (CMV-specific T cells; read-out: CMV Recall EC50 cluster, cluster symbol) | EC50 (CMV-specific T cells; numeric value, read-out: CMV Recall EC50 values) | SMILES
1 | 50.9 nM | 92.5 nM | 508 nM | – | – | – | – | CCCC[C@@H]1C(=O)N(C)[C@H](CCCC)C(=O)N[C@@H](C)C(=O)N[C@@H](C(=O)NCC(N)=O)CSCC(=O)N[C@@H](Cc2ccc(O)cc2)C(=O)N2CCCC2C(=O)N[C@H](CC(=O)O)C(=O)N2CCC[C@H]2C(=O)N[C@H](Cc2c[nH]cn2)C(=O)N[C@@H](CCC(=O)O)C(=O)N2CCCC2C(=O)N[C@H](Cc2c[nH]c3ccccc23)C(=O)N[C@@H](CCN)C(=O)N[C@@H](Cc2c[nH]c3ccccc23)C(=O)N1C (stereo partly shown) [Example 1215] ({CH2CO}-Y[ξP][dD]P[dH]E[ξP][dW][Dab]W[dNMeNle][dNMeNle]A[dC]G-NH2; thioether N-14)
2 | 16.5 nM | 4.92 nM | 21.9 nM | – | – | – | – | CCCC[C@H]1C(=O)N(C)[C@@H](CCCC)C(=O)N[C@@H](CCCNC(=N)N)C(=O)N[C@H](C(=O)NCC(N)=O)CSCC(=O)N[C@@H](Cc2ccc(O)cc2)C(=O)N2CCCC[C@H]2C(=O)N[C@@H](CC(N)=O)C(=O)N2CCC[C@H]2C(=O)N[C@@H](Cc2cnc[nH]2)C(=O)N[C@@H](CCC(=O)O)C(=O)N2C[C@H](O)C[C@H]2C(=O)N[C@@H](Cc2c[nH]c3ccccc23)C(=O)N[C@@H](CO)C(=O)N[C@@H](Cc2c[nH]c3ccccc23)C(=O)N1C [Example 1237] ({CH2CO}-Y[Pip]NPHE[Hyp]WSW[NMeNle][NMeNle]RCG-NH2; thioether N-14)
3 | 4.39 nM | 1.15 nM | 25.2 nM | – | – | – | – | CCCC[C@H]1C(=O)N2CCC[C@@H]2C(=O)N2C[C@H](N)C[C@H]2C(=O)N[C@@H](C(C)C)C(=O)N(C)[C@@H](Cc2ccccc2)C(=O)N[C@@H](Cc2ccc(O)cc2)C(=O)N2CCCC[C@@H]2C(=O)N[C@@H](Cc2c[nH]c3ccccc23)C(=O)N[C@@H](Cc2ccc(O)cc2)C(=O)N[C@@H](CC(C)C)C(=O)N[C@H](C(=O)NCC(N)=O)CSCC(=O)N[C@@H](Cc2cc(F)c(F)c(F)c2)C(=O)N(C)[C@@H](Cc2ccccc2)C(=O)N1C [Example 3194] ({CH2CO}-[Phe(3,4,5-F3)][NMeF][NMeNle][dP][Pro(4R-NH2)]V[NMeF]Y[dPip]WYLCG-NH2; thioether N-13)
4 | – | – | – | 0.385 to 6.74 nM | 0.158 to 4.71 nM | 1000 nM | – | CCCC[C@H]1C(=O)N2C[C@H](O)C[C@@H]2C(=O)N[C@@H](CC(=O)O)C(=O)N[C@@H](C(C)C)C(=O)N(C)[C@@H](Cc2ccccc2)C(=O)N[C@@H](Cc2ccc(O)cc2)C(=O)N2CCCC[C@@H]2C(=O)N[C@@H](Cc2c[nH]c3ccccc23)C(=O)N[C@@H](Cc2ccc(O)cc2)C(=O)N[C@@H](CC(C)C)C(=O)N[C@H](C(=O)NCC(N)=O)CSCC(=O)N[C@@H](Cc2cc(F)c(F)c(F)c2)C(=O)N(C)[C@@H](Cc2ccccc2)C(=O)N1C [Example 3590] ({CH2CO}-[Phe(3,4,5-F3)][NMeF][NMeNle][d(cisHyp)]DV[NMeF]Y[dPip]WYLCG-NH2; thioether N-13)
5 | – | – | – | – | – | – | 38.3 nM | CCCC[C@H]1C(=O)N(C)[C@@H](CCCC)C(=O)N[C@@H](CCN)C(=O)N[C@H](C(=O)NCC(N)=O)CSCC(=O)N[C@@H](Cc2ccc(O)cc2)C(=O)N(C)[C@@H](C)C(=O)N[C@@H](CC(N)=O)C(=O)N2CCC[C@H]2C(=O)N[C@@H](Cc2c[nH]cn2)C(=O)N[C@@H](CCC(=O)O)C(=O)N2C[C@H](Cc3ccc(F)cc3)C[C@H]2C(=O)N[C@@H](Cc2c[nH]c3ccccc23)C(=O)N[C@@H](CCN)C(=O)N[C@@H](Cc2c[nH]c3ccccc23)C(=O)N1C [Example 13011] ({CH2CO}-Y[NMeA]NPHE[X3]W[Dab]W[NMeNle][NMeNle][Dab]CG-NH2; thioether N-14)
